Laboratory results published in US11583502B2, “Pharmaceutical compositions comprising a thyroid hormone beta agonist, method of use and method making thereof” (GANNEX PHARMA CO., LTD., priority 2020, dated 2023).

Columns and labels:
[1] = Solubility of the compound of Formula (I) in media without surfactant; assay type: physicochemical
Description: The compound of Formula (I), however, is a lipophilic drug that is highly insoluble in water. […] The very low solubility limits its use in research and development as a drug candidate.
For drugs with poor solubility, in vitro dissolution evaluation is a simple and effective method for predicting and comparing dissolution in vivo. In vitro dissolution evaluation is also an important criterion for screening prescription drugs for quality control. […] Therefore, in order to completely dissolve the compound in a conventional 900 ml medium for a 10 mg/unit dose formulation, it is necessary to increase the solubility of the compound to at least 11.11 μg/ml. It would be difficult to achieve such a target with conventional solubilization technology.

[2] = assay type: physicochemical; conditions: 3.5 hours

solubility ([1]; aqueous buffer, hydrochloric acid solution, buffer, and water without surfactant at 37° C. and pH 1.0˜9.0): < 0.5 ng/mL | solubility ([1]; medium containing no surfactant): < 0.5 ng/mL | drug undergoing degradation reactions [2]: 10.2%
SMILES: Cc1cc(OC[P@@]2(=O)OCC[C@@H](c3cccc(Cl)c3)O2)cc(C)c1Cc1ccc(O)c(C(C)C)c1 [compound of Formula (I)]
